This data set in a line: method code SF-HPLC, from PMID: 1388632. The settings on record: pH 7.4.

As a reminder, the logD is lipophilicity at a set pH, counting ionised and neutral species.

Consider `CC(=O)C1=CC(=O)c2c(c(CO)c3n2CCCC3O)C1=O` (centres undefined), for which the logD amounted to 0.37.
For `CC(=O)OCc1c2c(n3c1CCC3)C(=O)C(C)=C(C(C)=O)C2=O` the value was 2.81; for `CC(=O)C1=C(C)C(=O)c2c(c(CO)c3n2CCC3O)C1=O` (centres undefined), 1.14.
`CC(=O)OCc1c2c(n3c1C(OC(C)=O)CC3)C(=O)C=C(C(C)=O)C2=O` (centres undefined): the logD came out at 1.15.
For `CC(=O)OCc1c2c(n3c1C(O)CCC3)C(=O)C=C(C(C)=O)C2=O` (centres undefined) the value was 0.89; for `CCNC(=O)OCc1c2c(n3c1C(O)CC3)C(=O)C(C)=C(OC)C2=O` (centres undefined), 1.83; for `CC(=O)C1=CC(=O)c2c(c(CO)c3n2CCC3O)C1=O` (centres undefined), -0.09.
For `CC(=O)OCc1c2c(n3c1C(OC(C)=O)CC3)C(=O)C(C)=C(N1CC1)C2=O` (centres undefined) the value was 1.75; for `CCCC(=O)OCc1c2c(n3c1C(OC(=O)CCC)CC3)C(=O)C(C)=C(C(C)=O)C2=O` (centres undefined), 4.

The values are drawn from the SangsterLogP compilation.
